Data reported in patent US10798955B2, “Compositions of particulate coformulation” (Nektar Therapeutics, priority 2000, dated 2020).

Test: Storage stability at room temperature and 100% relative humidity
Format: physicochemical
Conditions: 200 mg stored for a month at room temperature and 100% relative humidity
Experimental: For the assessment of stability, 200 mg of the Example A6 product (60% w/w QS in EC) was stored for a month at room temperature and 100% relative humidity, alongside a sample of the as-received pure QS.

C=C[C@H]1C[N@@]2CC[C@H]1C[C@H]2[C@H](O)c1ccnc2ccc(OC)cc12 [quinine sulphate]
powder physical appearance and flow properties after storage: signs of partial caking and a lower degree of powder flowability
